A short description of data set [1]: Stability analysis of DDD599/BPCA (pH buffers, simulated gastric fluid, glutathione). The format is physicochemical. On the procedure: (§1) DMPK analyses were performed by the Dundee University Drug Discovery Unit and BPCA/DDD599 stability analysis were undertaken by chemists at GlaxoSmithKline using in-house, standardised approaches.
123 Supplementary Table 1. Stability analysis of DDD599/BPCA pH10 Ox pH10 pH6 Ox pH6 pH4 Ox pH4 SGF Ox SGF GSH
Additionally, it was also tested in the presence of glutathione. Green text denoted acceptable 127 stability and red text denotes unacceptable stability under test conditions. At pH10 regardless of the presence of 128 H2O2, DDD599/BPCA was unfavourably unstable. […]

Data set [2] in a line: Pharmacokinetic analysis in naïve mice. The format is in vivo, BALB/c mice. The protocol: DDD291 and DDD881 were then evaluated for in vivo transmission-blocking activity in a mouse model of transmission. […] DDD881 was also administered similarly on day 4 of infection only 30 min prior to mosquito feed in a separate cohort of mice (Supplementary Data 5).
Eight phenylhydrazine-treated mice were infected with P. berghei constitutively expressing GFP. On day 3 of infection, they were assigned into four groups of two mice (DMSO A + B; DDD291 A + B; DDD881 A + B and C + D). Three groups received either 50 mg kg^−1 DDD291, 50 mg kg^−1 DDD881 or DMSO + vehicle control by IP injection. […] The fourth group received a 50 mg kg^−1 DDD881 dose on day 4, 30 min prior to mosquito feed. c Seven days after feeding, mosquitoes were dissected (n = 17–52 per condition) and oocysts recorded by fluorescent microscopy and automated image analysis. Horizontal bars indicate the mean. d PK analysis of DDD881. BALB/c mice were dosed with 50 mg kg^−1 DDD881 (n = 3) and plasma concentrations were monitored over time.

Data set [3] has as its system P. falciparum transmission to Anopheles stephensi mosquitoes. The data set is described as follows: P. falciparum standard membrane-feeding assay (SMFA), luciferase oocyst readout. The format is in vivo, Plasmodium falciparum. The note with it: 10 µM.
The nature of data set [4]: Mouse liver microsome clearance. The format is in vitro ADME. On the procedure:
as §1
(In general: Microsomes from liver hold many membrane-bound enzymes, among them those of drug oxidation.)

Data set [5] is described as follows: Parallel artificial membrane permeability assay (PAMPA). The format is in vitro ADME. On the procedure: as §1
Background: The PAMPA barrier holds no transporters, so it reflects passive diffusion.

Setting [6] is: mouse, plasma, intraperitoneal, 50 mg kg^−1, BALB/c mice, n = 3.

For `O=C(CCl)Nc1ccc(Br)cc1` [BPCA, N-(4-bromophenyl)-2-chloroacetamide], the fraction remaining (commonly the share of the starting amount still present when the sample was taken) at 24 h is 100% in data set [1] (Britton Robinson pH4 buffer + 20M% H2O2, pH 4, pH4 Ox); 100% in data set [1] (Britton Robinson pH4 buffer, pH 4); 100% in data set [1] (Britton Robinson pH6 buffer + 20M% H2O2, pH 6, pH6 Ox); 100% in data set [1] (Britton Robinson pH6 buffer, pH 6); 87% in data set [1] (Britton Robinson pH10 buffer + 20M% H2O2, pH 10, pH10 Ox); 87% in data set [1] (Britton Robinson pH10 buffer, pH 10). Further, the amount remaining at 24 h in data set [1] (Phosphate buffer pH7.4 with 5mM Glutathione, pH 7.4, GSH) was 0%; in data set [1] (Simulated Gastric Fluid + 20M% H2O2, SGF Ox), 99%; in data set [1] (Simulated Gastric Fluid, SGF), 98%. Also, the half-life (as a rule, the time in which the quantity being followed falls by half) in data set [1] (Britton Robinson pH4 buffer, pH 4, pH4 = Britton Robinson pH4) was more than 41.7 days; in data set [1] (SGF = Simulated Gastric Fluid), 25.3 days; in data set [1] (SGF Ox = Simulated Gastric Fluid + 20M% H2O2), more than 41.7 days; in data set [1] (pH 4, pH4 Ox = Britton Robinson pH4 buffer + 20M% H2O2), more than 41.7 days; in data set [1] (pH 6, pH6 = Britton Robinson pH6 buffer), more than 41.7 days; in data set [1] (pH 6, pH6 Ox = Britton Robinson pH6 buffer + 20M% H2O2), more than 41.7 days. For the same compound, the half-life is less than 0.0417 days in data set [1] (pH 7.4, GSH = Phosphate buffer pH7.4 with 5mM Glutathione); 3.92 days in data set [1] (pH 10, pH10 = Britton Robinson pH10 buffer); 3.83 days in data set [1] (pH 10, pH10 Ox = Britton Robinson pH10 buffer + 20M% H2O2). For the same compound, the “t10% degradation / hours” value in data set [1] (GSH) is less than 1 h; in data set [1] (SGF), 118 h; in data set [1] (SGF Ox), 512 h; in data set [1] (pH4), more than 1000 h; in data set [1] (pH4 Ox) it was more than 1000 h; in data set [1] (pH6), more than 1000 h. In addition, the “t10% degradation / hours” value in data set [1] (pH6 Ox) was more than 1000 h; in data set [1] (pH10) it was 18 h; in data set [1] (pH10 Ox), 18 h.
As to `O=S(=O)(NCC1(O)CCOc2ccccc21)c1ccc(Br)s1` (stereo not drawn) [DDD01035881], the plasma concentration in data set [2] (50 mg kg^−1, up to 120 min after dosing) is recorded as ~ 1000 ng ml^−1. In data set [2] (setting [6]), the Cmax (commonly the highest concentration seen after dosing) stood at 1580 ng/mL and the time to peak (Tmax) (in general, the time from dosing to the highest level) is 0.00346 days. In data set [3] (direct mode), the “mean normalised luciferase intensity” value stood at 0.26 and the “prevalence, % of DMSO control” value amounted to 0.49%. In addition, in data set [3] (mode direct, per experiment), the Average oocyst intensity is 2.8 and the Prevalence amounted to 0.0%.
Consider `OC1(CN2CCC(Oc3cccc(C(F)(F)F)c3)CC2)CCNC1` (stereo not drawn) [DDD01245291], for which the “mouse liver microsome clearance rate” value in data set [4] is listed as 4.2 ml min^−1 g^−1 Liver. Also, the Papp – broadly, the rate of passage across a membrane or cell layer, normalised by area and donor concentration – in data set [5] is 0.59 ×10⁻⁶ cm/s.

Source of the values: paper PMC6143625, “A high throughput screen for next-generation leads targeting malaria parasite transmission” (Nature Communications, 2018).
